Source: US8946302B2, “Selective sigma-1 receptor ligands” (Wisconsin Alumni Research Foundation, priority 2008, dated 2015)
“And” between values parts separate entries of the source, which are not always exact repeats. Equal values may be shown once. Read-outs that look alike come from different tables or passages of the source.

Experiments:
[1] = target: T1, purified sigma-1 receptor (Cavia porcellus, UniProt Q60492); experiment: Competitive displacement of [3H]-(+)-pentazocine at the pure sigma-1 receptor; format: binding, guinea pig; conditions: read-out: Ki Pure σ-1R
T1 construct: made in house; host or cells: E. coli BL21 DE3
Method: A guinea pig sigma-1 receptor was purified as previously described (Ramachandran et al., Protein Expr. Purif., 2007. 51(2): 283-92). The pMal P2X plasmid (New England Biolabs) encoding the guinea pig sigma-1 receptor on the C-terminus of the E. coli Maltose Binding Protein was used for purification. The sigma-1 receptor on its C-terminus carried a hexa-histadine epitope tag. Protein was expressed in the E. coli strain BL21 DE3 (Novagen) with 0.6 mM IPTG. The E. coli pellet was sonicated and centrifuged at 100,000 g for 1 hour to separate the particulate and soluble fractions. The particulate fraction was extracted with Triton X-100, centrifuged and the extract was loaded onto an amylose resin (New England Biolabs, E-802). After washing the resin with buffer containing 0.5% Triton X-100, the MBP-sigma-1 receptor fusion protein was eluted with buffer containing 10 mM maltose.
The MBP-sigma-1-receptor fusion protein was cleaved with Factor Xa protease (Novagen) at room temperature for 24-48 hours and the cleavage was monitored with SDS-polyacrylamide gel electrophoresis. The sigma-1 receptor from the Factor Xa cleavage was purified with a HIS-Select HC Nickel affinity gel (Sigma-Aldrich P6611) in a batch format. The resin was washed with buffer containing 0.5% Triton X-100 detergent and the beads were separated by a brief centrifugation at 4000 rpm in a microcentrifuge. After washing to remove MBP, the pure sigma-1 receptor was eluted in buffer containing 250 mM imidazole.
To remove the undigested MBP-sigma-1 receptor fusion protein that is carried over in the Ni^2+ purification, the eluate from the Ni^2+ purification was incubated with Anti-MBP antibody conjugated to agarose (Vector Laboratories, Burlingame, Calif.) at 4° C. for 18-24 hours. The beads were separated by centrifugation and the supernatant contained the pure sigma-1 receptor.
Competition ligand binding to the pure sigma-1 receptor was performed as previously described. […] After incubation at 30° C. for 60 minutes, the reaction was terminated by rapid filtration through glass fiber filters (Whatman GF/B), using a Brandel cell harvester (Brandel, Gaithersburg, Md.). The glass fiber filters were pre-soaked in 0.5% polyethyleneimine (PEI) for at least 1 hour at room temperature (˜23° C.). Filters were washed 4 times with 4 mL of ice-cold 50 mM Tris-C1, pH 8.0. Radioactivity was quantified by liquid scintillation counting using a Packard model 1600 CA scintillation counter.

Kv 1.4 K+ channel = target: T2, Kv 1.4 K+ channel (Rattus norvegicus, UniProt P15385); experiment: Whole cell patch clamp of Kv 1.4 K+ channel co-expressed with sigma-1 receptor in HEK-293 cells; format: cell-based; conditions: for average inhibition of Kv 1.4 K+ channel: concentrations up to 300 μM, HEK-293; for EC50: HEK-293 co-expressing sigma-1 receptor, read-out: EC50 for inhibition of the Kv 1.4 K+ channel
T2 construct: expressed in transfected cells; host or cells: HEK-293, transient, pIRES KvS1R plus pEGFP
Method: After transfection (36-48 hours), whole cell K^+ currents were recorded from GFP positive HEK cells under voltage clamp using standard patch clamp techniques, using patch pipettes filled with (in mM) 120 KCl, 10 NaCl, 10 EGTA, 2 MgCl2, 2-4 MgATP, 0.3 NaGTP, 10 HEPES, pH 7.3.
The external solution was composed of (in mM) 130 NaCl, 4 KCl, 2 CaCl2, 1 MgCl2, 10 HEPES, pH 7.4 at room temperature (22-24° C.). Patch pipettes with resistances from 1-3 MΩ were fabricated from borosilicate glass (Garner Glass Co., CA). K^+ channels were activated by voltage step from −120 mV to 20 mV for 250 ms. Axopatch 200B, patch clamp amplifier interfaced to a PC running PCLAMP 7 (Axon Instruments) was used for data acquisition. Drugs were applied by a gravity feed system at a flow rate of 1-3 mL/minute. Series resistance compensation was used for cells with series resistance values higher than 10 MΩ. A 80-90% series resistance compensation was achieved on such cells.
K^+ currents were recorded using whole cell patch clamp technique.

σ-2 Sites = target: T3, σ-2 Sites (Rattus norvegicus, UniProt Q5U3Y7); experiment: σ-2 sites radioligand binding, rat liver membranes (Table 2)
T3 construct: from tissue
T3 sequence (Q5U3Y7 1-176): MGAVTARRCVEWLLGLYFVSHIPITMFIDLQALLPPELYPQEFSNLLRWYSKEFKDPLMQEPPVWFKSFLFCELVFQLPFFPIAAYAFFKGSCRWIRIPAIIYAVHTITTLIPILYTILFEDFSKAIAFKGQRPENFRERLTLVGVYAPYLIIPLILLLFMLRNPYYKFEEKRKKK
Method: (§3) Assays for sigma-1 were performed using 10 nM (+)-[^3H]pentazocine in guinea pig liver homogenates (25 μg/well) incubated at 30° C. for 1 hour with several concentrations of competing ligands. After incubation, membranes were harvested on a 0.5% PEI-treated Whatman GF/B filters using a Brandel Cell Harvester. (+)-[^3H]pentazocine binding was determined by liquid scintillation counting. […] Serial concentrations of the compounds evaluated were added to the reactions for 45 minutes at 30° C. and the samples vacuum filtered through 0.5% polyethyleneimine (PEI) treated Whatman GF/B as described above to measure displacement of the radioligands from the sigma receptor subtypes.

σ-1 Sites = target: T4, σ-1 Sites (Cavia porcellus, UniProt Q60492); experiment: σ-1 sites radioligand binding, guinea pig liver membranes (Table 2); conditions: for Ki: guinea pig liver membranes
T4 construct: from tissue
Method: as §3

sigma-2 receptor [2] = target: T5, sigma-2 receptor (Rattus norvegicus, UniProt Q5U3Y7); experiment: Sigma-2 competitive binding, [3H]-DTG with (+)-pentazocine, rat liver membranes (Example 6); parameters: from tissue; host or cells: rat liver membranes; conditions: rat liver membranes, n = 3; read-out: Sigma2 KD values
T5 sequence (Q5U3Y7 1-176): T3 sequence (Q5U3Y7 1-176)
Method: (§4) Minced frozen rat livers or guinea pig livers (65 g) were thawed in 100 mL homogenization buffer (10 mM phosphate buffer pH 7.4 containing 0.32M sucrose, 1 M MgSO4, 0.5 M EGTA, 1 mM phenylmethylsulphonyl fluoride (PMSF), 10 μg/mlleupeptin, 1 μg/ml pepstatin A, 10 μg/ml p-toluenesulfonyl-L-arginine methyl ester (TAME) and then homogenized on ice with a Brinkman polytron homogenizer (setting 6, 4 bursts of 10 second each) followed by a glass homogenizer (Teflon pestle by 6 slow passes at 3,000 rpm). The homogenized tissues were then centrifuged at 17,000 g for 10 minutes. The supernatants were re-centrifuged at 100,000 g for 1 hour. The microsomal pellets were resuspended in homogenization buffer, snap frozen with dry ice-ethanol, and stored at −80° C. at a final protein concentration of 20 mg/mL.
as §3

sigma-1 receptor [3] = target: T6, sigma-1 receptor (Cavia porcellus, UniProt Q60492); experiment: Sigma-1 competitive binding, (+)-[3H]pentazocine, guinea pig liver membranes (Example 6); parameters: from tissue; host or cells: guinea pig liver membranes; conditions: for Kd: guinea pig liver membranes, n = 3, read-out: Sigma 1 KD values;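 on all read-outs here: compounds tested over serial concentrations, 45 min incubation at 30 °C with membrane preparations, read-out is displacement of bound radioligand from the receptor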
Method: as §4, §3

MB-MDA-231 = experiment: Cytotoxicity assay MB-MDA-231; format: cell-based; conditions: Homo sapiens, HU Breast, read-out: IC50 (SE) growth inhibition
Method: (§1) Multi-plex cytotoxicity assays were performed by the Keck-UWCCC Small Molecule Screening Facility (Madison, Wis.). Specific methodology can be found online at http://hts.wisc.edu/Resources.htm#mpa.

HCT-45 = experiment: Cytotoxicity assay HCT-45; format: cell-based; conditions: Homo sapiens, HU Colorectal, read-out: IC50 (SE) growth inhibition
Method: as §1

MCF7 = experiment: Cytotoxicity assay MCF7; format: cell-based; conditions: Homo sapiens, HU Breast, read-out: IC50 (SE) growth inhibition
Method: as §1

tumor cell lines = experiment: Cytotoxicity assays, various tumor cell lines (statements in words); format: cell-based, human
Method: Because sigma-1 receptors are overexpressed in numerous tumor cell lines, which include breast cancer, lung carcinoma, renal carcinoma, colon carcinoma, sarcoma, brain tumors, melanoma, glioblastoma, neuroblastoma, and prostate cancer, the ability of the compounds to inhibit the growth of various tumor cell lines were tested.
as §1

Du145 = experiment: Cytotoxicity assay Du145; format: cell-based; conditions: Homo sapiens, DU-145, HU Prostate, read-out: IC50 (SE) growth inhibition
Method: as §1

HI299 = experiment: Cytotoxicity assay HI299; format: cell-based; conditions: Homo sapiens, HU Lung, read-out: IC50 (SE) growth inhibition
Method: as §1

SF268 = experiment: Cytotoxicity assay SF268; format: cell-based; conditions: Homo sapiens, SF-268, HU CNS, read-out: IC50 (SE) growth inhibition
Method: as §1

HT-29 = experiment: Cytotoxicity assay HT-29; format: cell-based; conditions: Homo sapiens, HU Colorectal, read-out: IC50 (SE) growth inhibition
Method: as §1

NCI-H460 = experiment: Cytotoxicity assay NCI-H460; format: cell-based; conditions: Homo sapiens, HU lung, read-out: IC50 (SE) growth inhibition
Method: as §1

MCP10A = experiment: Cytotoxicity assay MCP10A; format: cell-based; conditions: Homo sapiens, HU Breast, read-out: IC50 (SE) growth inhibition
Method: as §1

SKOV-3 = experiment: Cytotoxicity assay SKOV-3; format: cell-based; conditions: Homo sapiens, SK-OV-3, HU Ovarian, read-out: IC50 (SE) growth inhibition
Method: as §1

A549 = experiment: Cytotoxicity assay A549; format: cell-based; conditions: Homo sapiens, HU lung, read-out: IC50 (SE) growth inhibition
Method: as §1

sigma-1 receptor [4] = target: T6, sigma-1 receptor; experiment: Competition assay against (+)-[3H]-pentazocine, trace amines; format: binding; parameters: from tissue; conditions: for sigma-2/sigma-1 Kd ratio: sigma-2 KD / sigma-1 KD
Method: (§2) Competitive binding assays were performed as previously described (18) with the exception of testing new ligands shown in Table 4.

sigma-1 receptor [5] = target: T7, sigma-1 receptor (Rattus norvegicus, UniProt Q9R0C9); experiment: Protection of [125I]-IACoc photolabeling in rat liver membranes; format: binding; conditions: even at 50 and 100 μM
T7 construct: from tissue; host or cells: rat liver membranes
Method: (§5) Rat liver membranes (100 μg/lane) were suspended in the presence or absence of the protecting drugs. […] Percent band intensities are shown compared to controls performed in the absence of protecting ligand (−).

sigma-2 receptor [6] = target: T5, sigma-2 receptor; experiment: Sigma-2 receptor competitive binding, trace amines; parameters: from tissue; host or cells: liver membranes (rat inferred)
Method: as §2

sigma-2 receptor [7] = target: T5, sigma-2 receptor; experiment: Protection of [125I]IAF photolabeling of the sigma-2 receptor in rat liver membranes; format: binding; parameters: from tissue; host or cells: rat liver membranes
Method: as §5

[8] = tested on: WT and sigma-1 receptor knockout mice; experiment: Open-field hypermobility assay in WT and sigma-1 receptor KO mice; format: in vivo, mouse; conditions: WT and KO mice, 3 mg/kg i.p.
Method: All mice were maintained on a normal light/dark cycle and handled in accordance with Animal Care and Use Guidelines of the University of Wisconsin, Madison. […] Mice were first acclimatized to the experimental room for one hour. WT and KO mice were injected with the monoamine oxidase inhibitor, pargyline (75 mg/kg, i.p.) two hours prior to DMT or vehicle injection(28). […] Each condition represents 8 to 14 mice (n=8-14). […] A computer program was used to quantitate movement and after each experiment, 70% ethanol was used to remove odors from the open-field.

T2 sequence (Q9R0C9 whole entry partner): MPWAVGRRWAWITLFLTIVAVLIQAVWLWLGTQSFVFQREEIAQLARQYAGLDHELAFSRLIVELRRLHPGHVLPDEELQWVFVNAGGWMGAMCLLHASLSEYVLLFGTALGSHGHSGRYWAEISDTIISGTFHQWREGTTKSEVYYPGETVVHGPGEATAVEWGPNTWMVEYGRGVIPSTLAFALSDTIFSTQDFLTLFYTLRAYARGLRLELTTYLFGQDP
T2 sequence (P15385 whole entry): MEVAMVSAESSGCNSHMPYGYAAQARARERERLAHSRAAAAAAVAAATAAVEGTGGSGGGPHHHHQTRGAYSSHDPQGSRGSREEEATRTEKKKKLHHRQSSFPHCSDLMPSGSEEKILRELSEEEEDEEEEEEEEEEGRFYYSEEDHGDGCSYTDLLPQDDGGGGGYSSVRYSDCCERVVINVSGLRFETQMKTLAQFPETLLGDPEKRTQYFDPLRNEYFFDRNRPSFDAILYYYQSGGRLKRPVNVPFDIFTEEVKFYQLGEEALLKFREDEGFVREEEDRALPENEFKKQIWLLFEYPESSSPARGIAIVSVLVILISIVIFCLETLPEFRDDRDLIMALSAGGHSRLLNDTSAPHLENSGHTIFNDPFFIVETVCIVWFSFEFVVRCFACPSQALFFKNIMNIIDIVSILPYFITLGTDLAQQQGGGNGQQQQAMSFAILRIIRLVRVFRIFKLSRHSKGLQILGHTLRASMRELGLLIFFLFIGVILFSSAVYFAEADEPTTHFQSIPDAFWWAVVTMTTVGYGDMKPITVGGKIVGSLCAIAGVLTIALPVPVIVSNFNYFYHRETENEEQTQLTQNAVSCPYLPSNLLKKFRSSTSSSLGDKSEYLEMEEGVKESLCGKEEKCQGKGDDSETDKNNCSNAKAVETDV
T4 sequence (Q60492 whole entry): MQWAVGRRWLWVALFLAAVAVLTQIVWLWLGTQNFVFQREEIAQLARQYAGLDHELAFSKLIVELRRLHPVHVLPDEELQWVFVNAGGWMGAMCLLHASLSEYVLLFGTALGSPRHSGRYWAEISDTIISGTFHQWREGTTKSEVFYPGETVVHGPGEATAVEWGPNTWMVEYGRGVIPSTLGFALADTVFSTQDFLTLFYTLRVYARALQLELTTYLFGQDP
T6 sequence (Q60492 whole entry): as above
T1 sequence (Q60492 whole entry): as above
T7 sequence (Q9R0C9 whole entry): as the sequence (Q9R0C9 whole entry partner) above

## CCCCN [Butylamine, reference compound]
[1]; [3H]-(+)-pentazocine 10 nM
  Ki: 477 ± 67.5 µM
Kv 1.4 K+ channel
  average inhibition of Kv 1.4 K+ channel: 21%

## CCCCNCCCc1ccccc1 [Compound 1a, N-(3-Phenylpropyl)butan-1-amine]
σ-2 Sites
  Ki: 0.153 µM
[1]; [3H]-(+)-pentazocine
  Ki: 0.205 ± 0.0185 µM
σ-1 Sites
  Ki: 0.073 µM
σ-1 Sites; σ-2 rat liver / σ-1 guinea pig liver membranes
  σ-1 selectivity σ-2 Ki/σ-1 Ki: 2
Kv 1.4 K+ channel
  EC50: 50 µM

## CCCCCCCNCCCc1ccccc1 [Compound 1c, N-(3-Phenylpropyl)heptane-1-amine]
σ-2 Sites
  Ki: 0.033 µM
[1]; [3H]-(+)-pentazocine
  Ki: 0.0184 µM
σ-1 Sites
  Ki: 0.015 µM
Kv 1.4 K+ channel
  EC50: 10 µM

## CCCCCCCCN(CCCCCCCC)C(=O)CCc1ccc(F)cc1 [Compound 4, N,N-Dioctyl-3-(4-fluorophenyl)propionamide]
other
  melting point: 190 to 193 °C

## CCCCN(CCCC)C(=O)CCc1ccc(F)cc1 [Compound 5, N,N-Dibutyl-3-(4-fluorophenyl)propionamide]
sigma-2 receptor [2]
  Kd: 126 µM
other
  melting point: 162 to 164 °C
sigma-1 receptor [3]
  Ratio (σ2/σ1): 3.94
  Kd: 32.1 µM

## CCCNCCc1ccc([N+](=O)[O-])cc1 [Compound 7, N-propyl-N-3-(4-nitophenyl)-ethylamine]
sigma-2 receptor [2]
  Kd: 53.6 µM
other
  melting point: 142 to 144 °C
sigma-1 receptor [3]
  Ratio (σ2/σ1): 23.8

## CCCCN(CCCC)CCCc1ccc([N+](=O)[O-])cc1 [Compound 11, N,N-Dibutyl-3-(4-nitrohenyl)propylamine]
MB-MDA-231
  IC50: 57.1 µM
HCT-45
  IC50: > 100 µM
sigma-2 receptor [2]
  Kd: 0.404 µM
MCF7
  IC50: 22.4 µM
Tumor cell lines
  cytotoxicity / tumor cell growth inhibition: robustly inhibits growth in MB-MDA231, MCF7, Du145, and NCI-H460 cell lines in addition to SKOV-3 cells
Du145
  IC50: 32.7 µM
HI299
  IC50: > 100 µM
SF268
  IC50: > 100 µM
sigma-1 receptor [3]
  Ratio (σ2/σ1): 1347
  Kd: 0.0003 µM
HT-29
  IC50: > 100 µM
NCI-H460
  IC50: 40.5 µM
MCP10A
  IC50: > 100 µM
SKOV-3
  IC50: 27.9 µM
A549
  IC50: > 100 µM

## CCCN(CCCc1ccc(F)cc1)Cc1ccc(N)cc1 [Compound 17, N-Propyl-N-(4-amino-benzyl)-3-(4-fluorophenyl)propylamine]
MB-MDA-231
  IC50: > 100 µM
HCT-45
  IC50: > 100 µM
sigma-2 receptor [2]
  Kd: 2.15 µM
MCF7
  IC50: > 100 µM
Tumor cell lines
  cytotoxicity / tumor cell growth inhibition: lacked any cytotoxic properties
Du145
  IC50: > 100 µM
HI299
  IC50: > 100 µM
SF268
  IC50: > 100 µM
sigma-1 receptor [3]
  Ratio (σ2/σ1): 13.11 ^
  Kd: 0.164 µM
HT-29
  IC50: > 100 µM
NCI-H460
  IC50: > 100 µM
MCP10A
  IC50: > 100 µM
SKOV-3
  IC50: > 100 µM
A549
  IC50: > 100 µM

## CCCN(CCCc1ccc([N+](=O)[O-])cc1)CCc1ccc(N)cc1 [Compound 18, N-Propyl-N-4-aminophenylethyl-3-(4-nitrophenyl)propylamine]
MB-MDA-231
  IC50: > 100 µM
HCT-45
  IC50: > 100 µM
sigma-2 receptor [2]
  Kd: 0.0836 µM
MCF7
  IC50: 86.1 µM
Du145
  IC50: > 100 µM
HI299
  IC50: > 100 µM
SF268
  IC50: > 100 µM
sigma-1 receptor [3]
  Ratio (σ2/σ1): 13.93 ^
HT-29
  IC50: > 100 µM
NCI-H460
  IC50: > 100 µM
MCP10A
  IC50: > 100 µM
SKOV-3
  IC50: > 100 µM
A549
  IC50: > 100 µM

## CCCCCCCN [Heptylamine]
[1]; [3H]-(+)-pentazocine 10 nM
  Ki: 21.4 µM and 21 µM
Kv 1.4 K+ channel
  average inhibition of Kv 1.4 K+ channel: 15%

## CN(C)CCc1ccccc1 [N,N′-dimethylPEA, N,N-dimethyl-2-phenylethylamine]
sigma-1 receptor [4]
  sigma-2/sigma-1 Kd ratio: 1.642

## CNCCc1ccccc1 [N-methylPEA]
sigma-1 receptor [4]
  sigma-2/sigma-1 Kd ratio: 0.366

## CNCCc1c[nH]c2ccccc12 [N-methyltryptamine]
sigma-1 receptor [5]
  protection of sigma-1 receptor [125I]-IACoc photolabeling: protected minimally

## CNCCc1ccc(O)cc1 [N-methyltyramine, 4-(2-(methylamino)ethyl)phenol]
sigma-2 receptor [6]; read-out: Sigma-2R KD
  Kd: 6.61 µM

## NCCc1ccccc1 [Phenethylamine]
sigma-2 receptor [6]
  Kd: 7.31 µM
sigma-1 receptor [4]
  Kd: 97.4 µM

## NCCc1c[nH]c2ccccc12 [Tryptamine]
sigma-2 receptor [6]; read-out: Sigma-2R KD
  Kd: 4.91 µM
sigma-1 receptor [4]
  Kd: 432 µM
sigma-2 receptor [7]; 10 μM
  protection of [125I]IAF sigma-2 receptor photolabeling: 47%
sigma-2 receptor [7]; 50 μM
  protection of [125I]IAF sigma-2 receptor photolabeling: 78%
sigma-2 receptor [7]; 100 μM
  protection of [125I]IAF sigma-2 receptor photolabeling: 79%
sigma-1 receptor [5]
  protection of sigma-1 receptor [125I]-IACoc photolabeling: protected minimally

## NCCc1ccc(O)cc1 [Tyramine]
sigma-1 receptor [4]; (+)-[3H]-pentazocine 10 nM, read-out: Sigma-1R KD
  Kd: > 30000 µM

## CN[C@@H](C)Cc1ccccc1 [methamphetamine]
[8]
  hypermobility: induced hypermobility in both WT and KO mice
